Assay results as given in patent US20240343681A1, “MOLECULES HAVING PESTICIDAL UTILITY AND INTERMEDIATES AND PROCESSES RELATED THERETO” (priority 2021, published 2024).

Key:
[1] = system: target pests; assay: Screening of separated stereoisomer peaks against target pests; format: in vivo; settings: SFC-separated R,R and S,S isomers (F107 and F108)
Protocol: trans-rac-N-(3-Amino-4-chlorophenyl)-2,2-dichloro-3-(4-fluoro-3-(trifluoromethyl)phenyl)cyclopropane-1-carboxamide (C20, 1.0 g, 2.27 mmol) was added to a solution of 2,6-difluoronicotinic acid (0.36 g, 2.27 mmol) in toluene (25 mL). Pyridine (0.72 mL, 9.05 mmol) was added dropwise, and 2,4,6-tripropyl-1,3,5,2,4,6-trioxatriphosphinane 2,4,6-trioxide as a 50% solution in ethyl acetate (5.8 mL, 9.05 mmol) was added at room temperature. The reaction mixture was warmed to 110° C. and stirred for 16 hours, cooled to room temperature, and concentrated under reduced pressure. The residue was diluted with water (80 mL) and was extracted with ethyl acetate (2×80 mL). The combined organic phases were washed with saturated aqueous sodium chloride, dried over anhydrous sodium sulfate, and filtered, and the filtrate was concentrated under reduced pressure.

[2] = system: Beet Armyworm (Spodoptera exigua, LAPHEG) second instar larva; assay: Bioassay on beet armyworm (BAW), 128-well diet tray assay; format: in vivo; settings: 50 μg/cm^2 on artificial diet, 25° C., five days
How it was run: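 Test molecule in 90:10 acetone–water applied at 50 μg/cm^2 onto 1 mL artificial diet and dried; one second-instar larva per well, eight wells. Held 5 days at 25 °C, 14:10 light–dark; percent mortality averaged over the eight wells.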

[3] = system: Yellow Fever Mosquito (Aedes aegypti, AEDSAE) larvae; assay: Bioassay on yellow fever mosquito (YFM), 96-well plate larval assay; format: in vivo; settings: 4000 ppm (master plate solution), about 1 day-old larvae, 3 days

| SMILES | melting point | efficacy against target pests, Peak-2 versus Peak-1 [1] | activity against BAW (percent mortality, averaged over eight wells) [2] | activity against YFM (scored based on mortality) [3] |
| --- | --- | --- | --- | --- |
| O=C(Nc1cc(NC(=O)C2C(c3cc(Cl)cc(Cl)c3)C2(Cl)Cl)ccc1Cl)c1cccc(=O)[nH]1 (racemic) | 312 to 316 °C | – | – | – |
| O=C(Nc1cc(NC(=O)C2C(c3cc(Cl)cc(Cl)c3)C2(Cl)Cl)ccc1Cl)c1cc(C(F)(F)F)cc(C(F)(F)F)c1 (racemic) | 109 to 113 °C | – | – | – |
| O=C(Nc1cc(NC(=O)[C@H]2[C@H](c3ccc(F)c(C(F)(F)F)c3)C2(Cl)Cl)ccc1Cl)c1ccc(F)nc1F (single isomer, unassigned) [F107] | – | significantly greater than Peak-1 | – | – |
| CCCC(=O)Nc1cccc(NC(=O)[C@H]2[C@H](c3cc(Cl)cc(Cl)c3)C2(Cl)Cl)c1F [F20, (1R,3R)—N-(3-Butyramido-2-fluorophenyl)-2,2-dichloro-3-(3,5-dichlorophenyl)cyclopropane-1-carboxamide] | – | – | exhibited activity | exhibited activity |
| CC(C#N)C(=O)Nc1cccc(NC(=O)[C@H]2[C@H](c3cc(Cl)cc(Cl)c3)C2(Cl)Cl)c1F (stereo partly drawn) [F22, (1R,3R)-2,2-Dichloro-N-(3-(2-cyanopropanamido)-2-fluorophenyl)-3-(3,5-dichlorophenyl)cyclopropane-1-carboxamide] | – | – | exhibited activity | exhibited activity |
| O=C(Nc1cc(NC(=O)[C@H]2[C@H](c3ccc(F)c(C(F)(F)F)c3)C2(Cl)Cl)ccc1Cl)c1cc(F)cc(F)c1 [F100, N-(2-Chloro-5-((1R,3R)-2,2-dichloro-3-(4-fluoro-3-(trifluoromethyl)phenyl)cyclopropane-1-carboxamido)phenyl)-3,5-difluorobenzamide] | – | – | exhibited activity | exhibited activity |
| O=C(Nc1cc(NC(=O)[C@H]2[C@H](c3cc(Cl)cc(Cl)c3)C2(Cl)Cl)ccc1Cl)c1ncc(F)cc1F [F106, N-(2-Chloro-5-((1R,3R)-2,2-dichloro-3-(3,5-dichlorophenyl)cyclopropane-1-carboxamido)phenyl)-3,5-difluoropicolinamide] | – | – | exhibited activity | exhibited activity |
| O=C(Nc1cc(NC(=O)[C@H]2[C@H](c3ccc(F)c(C(F)(F)F)c3)C2(Cl)Cl)ccc1Cl)c1cnc(F)c(F)c1 [F109, N-(2-Chloro-5-((1R,3R)-2,2-dichloro-3-(4-fluoro-3-(trifluoromethyl)phenyl)cyclopropane-1-carboxamido)phenyl)-5,6-difluoronicotinamide] | – | – | exhibited activity | exhibited activity |
